# From patent US20250360113A1, “ADMINISTRATION OF DHB TO INCREASE BENEFIT OF LOSING WEIGHT OF INTERMITTENT FASTING” (NANJING NUTRABUILDING BIO-TECH CO., LTD., priority 2023, published 2025)
# Legend:
# [1] = Oral glucose tolerance test (OGTT); type: in vivo, C57BL/6 male mice; details: HFD obese mice
# Description: 50 C57BL/6 male mice aged about 8 weeks, are randomly assigned to five study groups (GA, GB1, GB2, GB3, GB4) of ten mice each (one cage, n=5 per condition). Mice were maintained in a pathogen free condition under a strict 12 h light/dark cycle (0600/1800 h) with 12-15 cycles/hour of air change. Mice were provided with access to respective feed and water ad libitum as per experimental conditions. Mice were housed under controlled laboratory conditions of temperature and humidity at 23±2° C. and 50±10% RH, respectively. Each study group consisted of ten animals, and treatment details of the individual study groups are given below: • Group A (GA, NC): Normal mice, maintained on normal diet (standard chow, 12% calories from fat; 23% calories from protein and 65% calories from carbohydrates) for 8 weeks, receiving neither EODF nor DHB treatment. • Group B1 (GB1): Obese mice, maintained on high fat diet (HFD, 60% calories from fat, 20% calories from protein, 20% calories from carbohydrate) for 8 weeks, receiving neither EODF nor DHB treatment. • Group B2 (GB2): Obese mice, maintained on HFD for 8 weeks, receiving only EODF and no DHB treatment. • Group B3 (GB3): Obese mice, maintained on HFD for 8 weeks, receiving only DHB treatment and no EODF. • Group B4 (GB4): Obese mice, maintained on HFD for 8 weeks, receiving DHB treatment and EODF combination. DHB was administered daily via intragastric injection (i.g.) according to a level of 70 mg/kg body weight. Mice not receiving DHB were given orally with ultrapure water. Oral glucose tolerance test (OGTT): To measure glucose levels in blood, GTT were implemented in the mice (NC and HFD groups) after overnight by using a glucose analyzer. The glucose concentrations were measured in blood collected by venous bleeding from the tail vein immediately at 0, 15, 30, 60 and 120 min after administered glucose at 2 g/kg orally. Towards the end of the final week of the study, GTT was also performed for all mice (NC and HFD groups).
# [2] = Insulin tolerance test (ITT); type: in vivo, C57BL/6 male mice; details: HFD obese mice
# Description: (§1) 50 C57BL/6 male mice aged about 8 weeks, are randomly assigned to five study groups (GA, GB1, GB2, GB3, GB4) of ten mice each (one cage, n=5 per condition). Mice were maintained in a pathogen free condition under a strict 12 h light/dark cycle (0600/1800 h) with 12-15 cycles/hour of air change. Mice were provided with access to respective feed and water ad libitum as per experimental conditions. Mice were housed under controlled laboratory conditions of temperature and humidity at 23±2° C. and 50±10% RH, respectively. Each study group consisted of ten animals, and treatment details of the individual study groups are given below: • Group A (GA, NC): Normal mice, maintained on normal diet (standard chow, 12% calories from fat; 23% calories from protein and 65% calories from carbohydrates) for 8 weeks, receiving neither EODF nor DHB treatment. • Group B1 (GB1): Obese mice, maintained on high fat diet (HFD, 60% calories from fat, 20% calories from protein, 20% calories from carbohydrate) for 8 weeks, receiving neither EODF nor DHB treatment. • Group B2 (GB2): Obese mice, maintained on HFD for 8 weeks, receiving only EODF and no DHB treatment. • Group B3 (GB3): Obese mice, maintained on HFD for 8 weeks, receiving only DHB treatment and no EODF. • Group B4 (GB4): Obese mice, maintained on HFD for 8 weeks, receiving DHB treatment and EODF combination. DHB was administered daily via intragastric injection (i.g.) according to a level of 70 mg/kg body weight. Mice not receiving DHB were given orally with ultrapure water. Insulin tolerance test (ITT): To measure insulin levels in blood, ITT were measured in the 6-h fasting mice (NC and HFD groups) by using a glucose analyzer. The glucose concentrations were measured by venous bleeding at 0, 15, 30, 60 and 120 min after an i.p. injection of human insulin at 0.75 U/kg. Towards the end of the final week of the study, ITT was performed for all mice (NC and HFD groups).
# [3] = tested on: ADRB3; assay: mRNA levels of ADRB3 from inguinal WAT by qRT-PCR; type: in vivo, C57BL/6 male mice; details: HFD obese mice
# Description: as §1, with “The mRNA” for “Insulin tolerance test (ITT): To measure insulin”, “of ADRB3 protein from inguinal WAT” for “in blood, ITT”, “determined” for “measured in the 6-h fasting mice (NC and HFD groups)”, “qRT-PCR.” for “using a glucose analyzer. The glucose concentrations were measured by venous bleeding at 0, 15, 30, 60 and 120 min after an i.p. injection of human insulin at 0.75 U/kg. Towards the end of the final week of the study, ITT was performed for all mice (NC and HFD groups).”
# [4] = mice, including mice lacking the intestinal bacteria needed to break down BBR; cited from earlier work
# [5] = DHB 70 mg/kg i.g. daily vs no DHB with and without EODF, FIGS. 11-14
# [6] = DHB + EODF combination vs EODF only
# [7] = DHB 70 mg/kg i.g. daily with or without EODF vs no DHB
compound,measurement,setting,value
"COc1ccc2c(c1OC)CN1CCc3cc4c(cc3C1=C2)OCO4 [DHB, Dihydroberberine]",blood glucose levels,[1]; [5],greater reduction
same,improving the glucose tolerance,[1]; [6],greater effects
same,reducing the blood glucose levels,[1]; [6],greater effects
same,glucose tolerance,"[1]; glucose 2 g/kg orally, DHB vs no DHB with and without EODF",better
same,insulin levels,[2]; [5],greater reduction
same,improving the insulin tolerance,[2]; [6],greater effects
same,reducing the insulin levels,[2]; [6],greater effects
same,insulin tolerance,"[2]; human insulin 0.75 U/kg i.p., DHB vs no DHB with and without EODF",better
same,"ADRB3 abundance (mRNA, inguinal WAT)",[3]; [7],increasing
same,lipolysis specifically in WAT,[3]; [7],upregulated
same,triggering lipolysis specifically in WAT,[3]; [6],greater effects
same,absorption compared with BBR,[4],better absorbed
